The values that follow are results of earlier work, collected in patent US5614503A, “Amphipathic nucleic acid transporter” (Aronex Pharmaceuticals, Inc., priority 1995, dated 1997).

For one series, the system named is animal cells. To be noted: some types of animal cells; Felgner, 1990.
For series [1] the following is noted: Moore et al., 1993.

Molecules are shown by their SMILES.

As for `CCCCCCCC/C=C\CCCCCCCCOCC(C[N+](C)(C)C)OCCCCCCCC/C=C\CCCCCCCC` (centres unmarked) [DOTMA], the “effect on uptake kinetics of nucleic acids” value with animal cells was “can improve the uptake kinetics of nucleic acids”.

Consider `CC(C)[C@@H](CC[C@@H](C)[C@H]1CC[C@H]2[C@@H]3[C@H](O)C[C@H]4C[C@@H](NCCCNCCCCN)CC[C@]4(C)[C@H]3CC[C@]12C)OS(=O)(=O)O` [squalamine], for which the antibiotic activity entry in series [1] is given as “broad-spectrum antibiotic”.
